Test results: article PMC8869475 (Biomolecules, 2022)

Target: T1, Insulin-Degrading Enzyme (IDE) (Homo sapiens, UniProt P14735)
T1 sequence (P14735 42-1019): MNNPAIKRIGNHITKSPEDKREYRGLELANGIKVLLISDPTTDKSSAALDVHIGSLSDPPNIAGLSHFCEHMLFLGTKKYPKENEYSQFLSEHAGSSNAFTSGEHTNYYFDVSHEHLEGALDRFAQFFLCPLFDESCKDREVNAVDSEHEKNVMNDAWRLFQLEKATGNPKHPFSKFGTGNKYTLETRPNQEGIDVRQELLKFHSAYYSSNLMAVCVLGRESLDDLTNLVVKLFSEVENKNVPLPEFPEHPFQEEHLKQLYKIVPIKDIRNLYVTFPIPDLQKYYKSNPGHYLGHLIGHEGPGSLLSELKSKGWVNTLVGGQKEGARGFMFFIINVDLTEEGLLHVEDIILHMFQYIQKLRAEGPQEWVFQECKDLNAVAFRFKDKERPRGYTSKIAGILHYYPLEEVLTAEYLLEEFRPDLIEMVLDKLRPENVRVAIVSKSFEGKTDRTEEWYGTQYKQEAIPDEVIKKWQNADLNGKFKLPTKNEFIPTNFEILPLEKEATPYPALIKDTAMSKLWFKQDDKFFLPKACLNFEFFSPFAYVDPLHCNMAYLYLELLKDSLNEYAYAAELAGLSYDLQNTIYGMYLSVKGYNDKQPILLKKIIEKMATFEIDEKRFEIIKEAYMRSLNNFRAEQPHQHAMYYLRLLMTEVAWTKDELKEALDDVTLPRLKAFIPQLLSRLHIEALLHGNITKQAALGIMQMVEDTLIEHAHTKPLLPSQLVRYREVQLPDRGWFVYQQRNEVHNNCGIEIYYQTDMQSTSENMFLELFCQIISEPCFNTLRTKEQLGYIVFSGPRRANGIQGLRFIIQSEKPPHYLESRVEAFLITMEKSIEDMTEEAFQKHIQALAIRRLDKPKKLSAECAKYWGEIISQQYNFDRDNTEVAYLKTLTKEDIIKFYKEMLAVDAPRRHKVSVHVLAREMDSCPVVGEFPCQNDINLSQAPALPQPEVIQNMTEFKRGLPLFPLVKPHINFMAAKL
Test: fluorogenic peptide hydrolysis by purified IDE, two-site kinetic fit; LC-MS of insulin hydrolysis (about […] decrease)
Type: biochemical

Kd: 0.13 µM
SMILES: CC(C)C[C@H](NC(=O)[C@H](CCc1ccccc1)NC(=O)CN1CCOCC1)C(=O)N[C@@H](Cc1ccccc1)C(=O)N[C@@H](CC(C)C)C(=O)[C@@]1(C)CO1 [CFZ, Carfilzomib]
